Measurements published in the supplement of paper PMC10307832.

Tests used:
Assay in all cases: relative viability (nuclei count vs DMSO), 5 days (fraction); higher = more cells survive
[1] = compound: CN1CCN(CC1)C2=CC(=C(C=C2)NC3=NC=C4C(=N3)N(C5=CC=CC=C5C(=O)N4C)C)OC [XMD8-85] + N=C(N)NC(=N)NCCc1ccccc1 [Phenformin] (partner 250 µM)
How it was run: (§1)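 Lung cancer cell lines in 1536-well plates got either a single drug or a fixed anchor-drug dose together with five library-drug doses (not always all listed) in √10 steps, by pin tool, on the day after seeding. Nuclei were counted after 5 days, and relative viability is the treated-to-vehicle ratio of nuclei counts. Values are medians of duplicate plates.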

[2] = compound: CN1CCN(CC1)C2=CC(=C(C=C2)NC3=NC=C4C(=N3)N(C5=CC=CC=C5C(=O)N4C)C)OC [XMD8-85] + O=C(CCCCCCC(=O)Nc1ccccc1)NO [Vorinostat] (partner 1 µM)
How it was run: as §1

[3] = compound: O=C(O)C(Cc1ccccc1[N+](=O)[O-])=NNc1nc(-c2ccc(Cl)c(Cl)c2)cs1 (mixture of isomers) [4EGI-1] + O=C(CCCCCCC(=O)Nc1ccccc1)NO [Vorinostat] (partner 1 µM)
How it was run: as §1

[4] = compound: O=C(O)C(Cc1ccccc1[N+](=O)[O-])=NNc1nc(-c2ccc(Cl)c(Cl)c2)cs1 (mixture of isomers) [4EGI-1] + CS(=O)(=O)CCNCc1ccc(-c2ccc3ncnc(Nc4ccc(OCc5cccc(F)c5)c(Cl)c4)c3c2)o1 [Lapatinib] (partner 2 µM)
How it was run: as §1

Cell Line	relative viability ([1]; first compound 0.08 µM)	relative viability ([1]; first compound 0.253 µM)	relative viability ([1]; first compound 0.8 µM)	relative viability ([1]; first compound 2.53 µM)	relative viability ([1]; first compound 8 µM)	relative viability ([2]; first compound 0.08 µM)	relative viability ([2]; first compound 0.253 µM)	relative viability ([2]; first compound 0.8 µM)	relative viability ([2]; first compound 2.53 µM)	relative viability ([2]; first compound 8 µM)	relative viability ([3]; first compound 0.5 µM)	relative viability ([3]; first compound 1.581 µM)	relative viability ([3]; first compound 5 µM)	relative viability ([3]; first compound 15.81 µM)	relative viability ([3]; first compound 50 µM)	relative viability ([4]; first compound 0.5 µM)	relative viability ([4]; first compound 1.581 µM)	relative viability ([4]; first compound 5 µM)	relative viability ([4]; first compound 15.81 µM)	relative viability ([4]; first compound 50 µM)
201T	0.437	0.467	0.444	0.469	0.447	1.01	1.03	0.961	0.978	0.741	1.11	1.03	1.07	0.852	0.559	1.04	0.986	1.04	1.02	0.659
A549	0.0975	0.198	0.149	0.274	0.193											1.15	1.04	1.09	0.77	0.0791
A-427	0.278	0.268	0.346	0.335	0.208	0.89	0.866	0.911	0.865	0.659	0.865		0.882	0.646	0.2	1.11	0.728	1.06	0.997	0.6
ABC-1	0.221	0.245	0.248	0.234	0.229	1.2	1.27	1.01	0.969	0.533	1.16		1.35	0.439	0.284	1.06	1.46	1.24	1.17	1.16
BEN	0.275	0.266	0.267	0.306	0.258	0.554	0.536	0.627	0.501	0.455	0.63	0.599	0.589	0.557	0.442	0.786	0.854	0.734	0.573	0.612
CAL-12T	0.575	0.528	0.537	0.517	0.369	0.724	0.861		0.602	0.534	0.964		0.95	0.759	0.67			0.634	0.701	0.529
COR-L23	0.384	0.452	0.484	0.476	0.366	0.413	0.486	0.558	0.516	0.236	0.672	0.261	0.618	0.345	0.103	1.13	0.826	0.981	0.536	0.14
COR-L 105	0.406	0.445	0.453	0.432	0.248	0.737	0.91	0.768	0.661	0.543	0.823	0.672	0.777	0.699	0.592	0.421	0.38	0.371	0.343	0.293
Calu-6																1.07	1	1.03	1	0.206
ChaGo-K-1	0.421	0.533	0.493	0.512		0.751	0.782	0.76	0.81	0.619	0.779	0.61	0.796	0.781	0.347					
EBC-1																0.205	0.246	0.201	0.217	0.166
EKVX	0.226	0.218	0.228	0.245	0.202	0.631	0.8	0.851	0.91	0.626	0.852	0.746	0.759	0.309	0.203	0.222	0.17	0.184	0.204	0.18
EMC-BAC-2	0.475	0.518		0.517	0.429	0.424	0.468	0.413	0.385	0.185	0.472		0.634	0.318	0.168	1.06	0.744	0.89	0.913	0.88
EPLC-272H	0.281	0.272	0.318	0.358	0.272	0.414	0.401	0.335	0.296	0.243	0.563	0.493	0.337	0.295	0.12	1.03	0.501	0.909	0.624	0.39
H3255	0.401	0.373	0.339	0.726		0.875	0.761	0.867	0.902	0.536	0.792		0.77		0.735	0.254	0.228	0.259	0.222	0.279
HARA	0.455	0.515	0.427	0.42	0.26	0.549	0.592	0.565	0.427	0.47	0.545	0.429	0.525	0.47	0.127	0.697	0.732	0.817	0.724	0.257
HCC-15	0.465	0.415	0.451	0.468	0.265	0.896	0.819	0.806	0.792	0.586	0.863	0.812	0.809	0.686	0.513	0.949	0.914	0.871	0.8	0.423
HCC-44	0.241	0.267	0.184	0.205	0.108	1.11	1.07	1.07	1.16	1.04	1.06	0.872	0.988	0.916	0.566	0.985	0.802	0.929	0.809	0.366
HCC-78	0.705	0.84	0.695	0.665	0.46	0.395	0.43	0.391	0.427	0.434	0.579		0.435	0.443	0.451	0.842	0.551	0.752	0.788	0.947
HCC-366	0.598	0.611	0.617	0.63	0.649	0.292	0.346	0.304	0.378	0.181	0.469	0.149	0.431	0.34	0.0704	1.03	0.632	1.02	1.03	0.134
HCC-827	0.389			0.49	0.45	0.909	0.824	0.802	0.959	0.773	0.785	0.698	0.902		0.274	0.197	0.201	0.15		0.168

Cell Line	relative viability ([1]; first compound 0.08 µM)	relative viability ([1]; first compound 0.253 µM)	relative viability ([1]; first compound 0.8 µM)	relative viability ([1]; first compound 2.53 µM)	relative viability ([1]; first compound 8 µM)	relative viability ([2]; first compound 0.08 µM)	relative viability ([2]; first compound 0.253 µM)	relative viability ([2]; first compound 0.8 µM)	relative viability ([2]; first compound 2.53 µM)	relative viability ([2]; first compound 8 µM)	relative viability ([3]; first compound 0.5 µM)	relative viability ([3]; first compound 1.581 µM)	relative viability ([3]; first compound 5 µM)	relative viability ([3]; first compound 15.81 µM)	relative viability ([3]; first compound 50 µM)	relative viability ([4]; first compound 0.5 µM)	relative viability ([4]; first compound 1.581 µM)	relative viability ([4]; first compound 5 µM)	relative viability ([4]; first compound 15.81 µM)	relative viability ([4]; first compound 50 µM)
HOP-62	0.595	0.535	0.659	0.683	0.469	0.605	0.673	0.622	0.598	0.231	0.65	0.346	0.715	0.616	0.104	1.06		1.08	0.961	0.362
IA-LM						0.824	0.731	0.812	0.662	0.588	1.04	0.91	0.871	0.698	0.261	0.886	0.589	0.581	0.109	0.0728
LC-2-ad	0.592	0.55	0.611	0.595		0.739		0.702	0.691	0.434	0.736	0.62	0.617	0.356	0.207	0.988	0.89	0.942	0.228	0.175
LCLC-97TM1	0.412	0.412	0.451	0.471	0.45	0.786	0.823	0.915	0.784	0.259	0.78		0.856	0.843	0.0947	1.28		1.16	0.801	0.274
LCLC-103H	0.329	0.34	0.36	0.372	0.303	0.799	0.77	0.784	0.801	0.585	0.619	0.75	0.851	0.746	0.282					
LK-2		0.279	0.377	0.374	0.213	0.25	0.421	0.271	0.264	0.206	0.314	0.174	0.337	0.354	0.236	1.04		0.978	0.984	0.745
LOU-NH91	0.661	0.774		0.835	0.523	0.896	0.904	0.91	1.04	0.641	0.993		0.964	0.782	0.529	0.807		0.822	0.787	0.552
LU99A	0.816	0.881	0.858	0.936	0.701	0.363	0.518	0.506		0.428	0.514	0.421	0.44	0.528	0.261	1.04		1.08	0.739	0.214
LXF-289	0.524	0.542	0.525	0.553		0.749	0.893	0.781	0.875	0.795	0.79	0.718	0.787	0.802	0.672	0.893	0.912	0.893	0.763	0.677
NCI-H23	0.797	0.791	0.806	0.694	0.774	0.508	0.634	0.638	0.591	0.31	0.779		0.612	0.58	0.165	1.24		1.09	1.13	0.43
NCI-H322M	0.74		0.749	0.819	0.479	0.832	0.815	0.885	0.779	0.606	0.998		1.05	0.8	0.482	0.617	0.558	0.637	0.566	0.427
NCI-H441	0.954	0.689	0.81	1.12	0.571	0.72	0.666	0.859	1.02	0.698	0.727	0.909	0.75	0.641	0.414					
NCI-H522	0.664	0.697	0.338	0.367	0.67	0.936	0.877	0.918	0.884	0.654	0.812	0.903	0.954	1.03	0.634					
NCI-H1299																0.932	0.957	1.02	0.987	0.357
NCI-H1563	0.65	0.609	0.63		0.615											1.11	0.809	0.994	0.393	0.536
NCI-H1623	0.611	0.584	0.578	0.555																
NCI-H1648						0.522	0.474	0.265	0.244	0.292	1.18	0.388	0.351	0.414	0.474					
NCI-H1703																1.46	0.955	1.17	1.22	0.437
NCI-H2342	0.646	0.56	0.682	0.608	0.599	0.767	0.75	0.72	0.927	0.991	0.765	0.664	0.833	0.835	0.712					
SW 900	0.448	0.523	0.675	0.554	0.22	0.372	0.584	0.434	0.671	0.188	0.615	0.59	0.503	0.314	0.15					
